These results are taken from patent US20250051321A1, “TRICYCLIC DERIVATIVE AND PREPARATION METHOD THEREFOR AND APPLICATION THEREOF” (SHANGHAI JEMINCARE PHARMACEUTICAL CO., LTD., priority 2021, published 2025).

In one data set the test system is plasma LPA 18:1 and LPA 18:2. Kind of data set: Human plasma ex vivo assay (LPA 18:1 / 18:2 by LC-MS/MS). Type of data set: biochemical. The following applies: 37° C., 2 hours, LPA 18:1, read-out: Human plasma ex vivo assay IC50 (18:1 LPA). Put shortly:
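Human plasma incubated 2 h at 37° C with compound (8 points, 1:3 dilution, top 10 μM, 0.1% DMSO), then quenched with 0.1% FA containing LPA 17:0 internal standard.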
As to `CN(c1nc(-c2ccc(F)cc2)c(C#N)s1)c1c2c(nc3c(F)cc(N4CC5(CN(C(=O)C6CCOCC6)C5)C4)cc13)C(O)CC2` (stereo not shown) [Example E14], the IC50 (commonly the concentration needed to halve the response being measured) is 281 nM.
Still for that read-out and setting: the result for `CN(c1nc(-c2ccc(F)cc2)c(C#N)s1)c1c2c(nc3c(F)cc(N4CC5(CN(C(=O)C6(O)CCOCC6)C5)C4)cc13)C(O)CC2` (stereo not shown) [Example E15] reads 266 nM; that for `CN(c1nc(-c2ccc(F)cc2)c(C#N)s1)c1c2c(nc3c(F)cc(N4CC5(CN(C(=O)C(C)(C)O)C5)C4)cc13)C(O)CC2` (stereo not shown) [Example E16], 410 nM; that for `CN1CC[C@H](C(=O)N2CC3(C2)CN(c2cc(F)c4nc5c(c(N(C)c6nc(-c7ccc(F)cc7)c(C#N)s6)c4c2)CCC5O)C3)C1` (stereo partly shown) [Example E18], 250 nM.
Still for that read-out and setting: the result for `Cc1cc(N2CC3(CN(C(=O)C(C)(C)O)C3)C2)nc2c(N(C)c3nc(-c4ccc(F)cc4)c(C#N)s3)c3c(nc12)C(C)(O)CC3` (stereo not shown) [Example E25] reads 379 nM; that for `Cc1cc(N2CC3(CN(C(=O)C(C)(C)O)C3)C2)cc2c(N(C)c3nc(-c4ccc(F)cc4)c(C#N)s3)c3c(nc12)C(O)CC3` (stereo not shown) [Example E26], 516 nM; that for `Cc1cc(N2CC3(CN(C(=O)C(C)(C)O)C3)C2)nc2c(N(C)c3nc(-c4ccc(F)cc4)c(C#N)s3)c3c(nc12)C(O)CC3` (stereo not shown) [Example E32], 202 nM.

The data set is the same for the next values; noted with them: 37° C., 2 hours, LPA 18:2, read-out: Human plasma ex vivo assay IC50 (18:2 LPA).
`CN(c1nc(-c2ccc(F)cc2)c(C#N)s1)c1c2c(nc3c(F)cc(N4CC5(CN(C(=O)C6CCOCC6)C5)C4)cc13)C(O)CC2` (stereo not shown) [Example E14]: the half-maximal inhibitory concentration (IC50) amounted to 651 nM.
Still for that read-out and setting: the result for `CN(c1nc(-c2ccc(F)cc2)c(C#N)s1)c1c2c(nc3c(F)cc(N4CC5(CN(C(=O)C6(O)CCOCC6)C5)C4)cc13)C(O)CC2` (stereo not shown) [Example E15] reads 271 nM; that for `CN(c1nc(-c2ccc(F)cc2)c(C#N)s1)c1c2c(nc3c(F)cc(N4CC5(CN(C(=O)C(C)(C)O)C5)C4)cc13)C(O)CC2` (stereo not shown) [Example E16], 436 nM; that for `CN1CC[C@H](C(=O)N2CC3(C2)CN(c2cc(F)c4nc5c(c(N(C)c6nc(-c7ccc(F)cc7)c(C#N)s6)c4c2)CCC5O)C3)C1` (stereo partly shown) [Example E18], 260 nM.
Turning to `Cc1cc(N2CC3(CN(C(=O)C(C)(C)O)C3)C2)nc2c(N(C)c3nc(-c4ccc(F)cc4)c(C#N)s3)c3c(nc12)C(C)(O)CC3` (stereo not shown) [Example E25], the IC50 came out at 457 nM.
Take `Cc1cc(N2CC3(CN(C(=O)C(C)(C)O)C3)C2)cc2c(N(C)c3nc(-c4ccc(F)cc4)c(C#N)s3)c3c(nc12)C(O)CC3` (stereo not shown) [Example E26]: the concentration for half-maximal inhibition (IC50) stood at 592 nM.
In the case of `Cc1cc(N2CC3(CN(C(=O)C(C)(C)O)C3)C2)nc2c(N(C)c3nc(-c4ccc(F)cc4)c(C#N)s3)c3c(nc12)C(O)CC3` (stereo not shown) [Example E32], the IC50 is 185 nM.

Tested on in the next data set: not listed separately
As to the kind of experiment: Pharmacokinetic test in mice. Type of data set: in vivo, ICR mice. The settings on record: male, ICR, mouse, plasma, 1 mg/kg, IV - 1 mpk. The procedure:
Dosage preparation: The dosing solution was prepared on the day of dosing. 2 mg of compound was weighed and dissolved in 5% DMSO+10% solutol+85% saline to prepare a solution for intravenous administration at a concentration of 0.2 mg/mL. 2 mg of compound was weighed and dissolved in 25% PEG 200+75% (0.5% MC) to obtain a solution for oral administration at a concentration of 1 mg/mL.
Six healthy male naïve ICR mice, weighing 25 to 30 g, were divided into two groups (intravenous and oral groups) with three in each group, and administered in a single dose. After 3 days of acclimatization, the mice were fasted overnight (10 to 12 hours) the night before the experiment, but had free access to water during the experiment, and the diet was resumed 4 hours after administration. After intravenous and oral administration, the timer was started. Blood was collected via the orbital venous plexus at the scheduled time points (IV&PO: 0.083, 0.25, 0.5, 1, 2, 4, 6, 8, and 24 hours). 40 μL of whole blood was collected at each point and added to a 1.5 mL EP tube containing sodium heparin. The collected whole blood was vibrated twice on a vortex mixer, mixed well, placed on wet ice, and centrifuged at 8000 rpm for 5 minutes at 4° C. within 1 hour. The supernatant plasma was stored in a −80° C. freezer until processing for analysis.
Consider `CN(c1nc(-c2ccc(F)cc2)c(C#N)s1)c1c2c(nc3c(F)cc(N4CC5(CN(C(=O)[C@H]6CCOC6)C5)C4)cc13)COC2` [Example C18], for which the area under the curve (AUC) (in general, concentration integrated over time) amounted to 3700 ng·h/mL; the C0 is 1940 ng/mL; the half-life (commonly how long it takes for the measured level to halve) is 109 min.

Staying with this data set, now noted: male, ICR, mouse, plasma, 1 mg/kg, IV - 1 mpk, read-out: CL (mL/min/kg, IV).
Regarding `CN(c1nc(-c2ccc(F)cc2)c(C#N)s1)c1c2c(nc3c(F)cc(N4CC5(CN(C(=O)[C@H]6CCOC6)C5)C4)cc13)COC2` [Example C18], the clearance turned out to be 4.59 mL/min/kg.

The data set is the same for the next values; noted with them: male, ICR, mouse, plasma, 5 mg/kg, PO - 5 mpk.
As for `CN(c1nc(-c2ccc(F)cc2)c(C#N)s1)c1c2c(nc3c(F)cc(N4CC5(CN(C(=O)[C@H]6CCOC6)C5)C4)cc13)COC2` [Example C18], the AUC was found to be 11000 ng·h/mL; the Cmax (usually the peak of the concentration-time curve) is 3330 ng/mL; the Tmax – broadly, the time at which the peak concentration occurs – came to 34.8 min; the half-life was 167 min.
In the case of `Cc1cc(N2CC3(CN(C(=O)C(C)(C)O)C3)C2)cc2c(N(C)c3nc(-c4ccc(F)cc4)c(C#N)s3)c3c(nc12)CCO3` [Example C27], the exposure (AUC) is 27600 ng·h/mL, the maximum concentration (Cmax) was found to be 2010 ng/mL, the time to peak (Tmax) was found to be 400 min and the half-life is 239 min.
For `Cc1cc(N2CC3(CN(C(=O)C(C)(C)O)C3)C2)cc2c(N(C)c3nc(-c4ccc(F)cc4)c(C#N)s3)c3c(nc12)COC3` [Example C31], the exposure (AUC) is 32300 ng·h/mL, the Cmax was determined as 3480 ng/mL, the Tmax worked out at 25.2 min and the half-life was 226 min.
For the compound `CN(c1nc(-c2ccc(F)cc2)c(C#N)s1)c1c2c(nc3c(F)cc(N4CC5(CN(C(=O)C(C)(C)O)C5)C4)cc13)CCC2` [Example C32], the area under the curve (AUC) was 21400 ng·h/mL, the Cmax stood at 2660 ng/mL, the time of peak concentration (Tmax) was 30 min and the half-life was 154 min.
The like results for `Cc1cc(N2CC3(CN(C(=O)C(C)(C)O)C3)C2)nc2c(N(C)c3nc(-c4ccc(F)cc4)c(C#N)s3)c3c(nc12)C(C)(O)CC3` (stereo not shown) [Example E25] were, in that order, 23900 ng·h/mL, 2830 ng/mL, 34.8 min and 160 min.
In the case of `Cc1cc(N2CC3(CN(C(=O)C(C)(C)O)C3)C2)cc2c(N(C)c3nc(-c4ccc(F)cc4)c(C#N)s3)c3c(nc12)C(O)CC3` (stereo not shown) [Example E26], the AUC worked out at 31300 ng·h/mL, the peak level (Cmax) was 4430 ng/mL, the Tmax was found to be 105 min and the half-life is 130 min.
The like results for `Cc1cc(N2CC3(CN(C(=O)C(C)(C)O)C3)C2)nc2c(N(C)c3nc(-c4ccc(F)cc4)c(C#N)s3)c3c(nc12)C(O)CC3` (stereo not shown) [Example E32] were, in that order, 8890 ng·h/mL, 2040 ng/mL, 94.8 min and 90.6 min.

The same data set, now with this note: male, ICR, mouse, plasma, 5 mg/kg, PO - 5 mpk vs IV - 1 mpk.
In the case of `CN(c1nc(-c2ccc(F)cc2)c(C#N)s1)c1c2c(nc3c(F)cc(N4CC5(CN(C(=O)[C@H]6CCOC6)C5)C4)cc13)COC2` [Example C18], the bioavailability – broadly, dose-corrected exposure relative to a reference, in per cent – stood at 59.7%.

A further data set deals with ATX (Homo sapiens (Human), UniProt Q13822). As to the kind of experiment: ATX enzyme inhibition assay (Amplex UltraRed/choline oxidase/HRP, 16:0 Lyso PC substrate). Type of data set: biochemical. The settings on record: assay buffer pH 8.5; read-out: IC50 (nM) pH 8.5. Put shortly:
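ATX (2× stock […]) preincubated with compound for 10 min at room temperature in assay buffer at pH 8.5 or 7.5. Reaction started with 16:0 Lyso PC, choline oxidase, HRP and Amplex UltraRed (2.5× working stock); fluorescence read kinetically (ex 550/em 590 nm) for 60 min.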
Consider `CN(c1nc(-c2ccc(F)cc2)c(C#N)s1)c1c2c(nc3c(F)cc(N4CC5(CN(C(=O)[C@H]6CCOC6)C5)C4)cc13)COC2` [Example C18], for which the IC50 turned out to be 15.2 nM.
`CN(c1nc(-c2ccc(F)cc2)c(C#N)s1)c1c2c(nc3c(F)cc(N4CC5(CN(C(=O)C6CCOCC6)C5)C4)cc13)C(O)CC2` (stereo not shown) [Example E14]: the IC50 was determined as 17.3 nM.
Turning to `CN(c1nc(-c2ccc(F)cc2)c(C#N)s1)c1c2c(nc3c(F)cc(N4CC5(CN(C(=O)C6(O)CCOCC6)C5)C4)cc13)C(O)CC2` (stereo not shown) [Example E15], the concentration for half-maximal inhibition (IC50) turned out to be 13.3 nM.
For `CN(c1nc(-c2ccc(F)cc2)c(C#N)s1)c1c2c(nc3c(F)cc(N4CC5(CN(C(=O)C(C)(C)O)C5)C4)cc13)C(O)CC2` (stereo not shown) [Example E16], the IC50 stood at 16.8 nM.
Consider `CN1CC[C@H](C(=O)N2CC3(C2)CN(c2cc(F)c4nc5c(c(N(C)c6nc(-c7ccc(F)cc7)c(C#N)s6)c4c2)CCC5O)C3)C1` (stereo partly shown) [Example E18], for which the IC50 was 21.4 nM.
